Measured values as given in PubChem BioAssay AID2060625 (Molecular Pharmacology Branch, DTP, NCI, 2025).

System: 186277-243-T-J2-PDC spheroids with HUVEC/MSC, viability
Assay: Anticancer human tumor 186277-243-T-J2-PDC patient-derived colon adenocarcinoma cell line growth inhibition [CLK]
Settings: for IC50: curve of first compound; for viability, T/C: stronger effect = lower value; active = viability on the fitted dose curve at most 10% of control; inactive = the rest
How it was run: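 Multi-cell-type spheroids combined patient-derived tumor cells with HUVEC endothelial cells and human mesenchymal stem cells. Paired agents were dosed in half-log steps down from about clinical Cmax, or from 10 microM where Cmax was unknown.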

[1] = second compound 0.0316 µM, first compound 0.0316 µM
[2] = second compound 0.0316 µM, first compound 0.1 µM
[3] = second compound 0.0316 µM, first compound 0.316 µM
[4] = second compound 0.0316 µM, first compound 1 µM
[5] = second compound 0.0316 µM, first compound 3.16 µM
[6] = second compound 0.0316 µM, first compound 10 µM
[7] = second compound 0.1 µM, first compound 0.0316 µM
[8] = second compound 0.1 µM, first compound 0.1 µM
[9] = second compound 0.1 µM, first compound 0.316 µM
[10] = second compound 0.1 µM, first compound 1 µM
[11] = second compound 0.1 µM, first compound 3.16 µM
[12] = second compound 0.1 µM, first compound 10 µM
[13] = second compound 0.316 µM, first compound 0.0316 µM
[14] = second compound 0.316 µM, first compound 0.1 µM
[15] = second compound 0.316 µM, first compound 0.316 µM
[16] = second compound 0.316 µM, first compound 1 µM
[17] = second compound 0.316 µM, first compound 3.16 µM
[18] = second compound 0.316 µM, first compound 10 µM
[19] = second compound 1 µM, first compound 0.0316 µM
[20] = second compound 1 µM, first compound 0.1 µM
[21] = second compound 1 µM, first compound 0.316 µM
[22] = second compound 1 µM, first compound 1 µM
[23] = second compound 1 µM, first compound 3.16 µM
[24] = second compound 1 µM, first compound 10 µM
[25] = second compound 3.16 µM, first compound 0.0316 µM
[26] = second compound 3.16 µM, first compound 0.1 µM
[27] = second compound 3.16 µM, first compound 0.316 µM
[28] = second compound 3.16 µM, first compound 1 µM
[29] = second compound 3.16 µM, first compound 3.16 µM
[30] = second compound 3.16 µM, first compound 10 µM
[31] = second compound 10 µM, first compound 0.0316 µM
[32] = second compound 10 µM, first compound 0.1 µM
[33] = second compound 10 µM, first compound 0.316 µM
[34] = second compound 10 µM, first compound 1 µM
[35] = second compound 10 µM, first compound 3.16 µM
[36] = second compound 10 µM, first compound 10 µM
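Note: compound exposure lasted seven days before readout.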
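Throughout, for viability, T/C: 100% = DMSO vehicle control wells.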

CC1(C)CCC(CN2CCN(c3ccc(C(=O)NS(=O)(=O)c4ccc(NCC5CCOCC5)c([N+](=O)[O-])c4)c(Oc4cnc5[nH]ccc5c4)c3)CC2)=C(c2ccc(Cl)cc2)C1 + CNC(=O)c1ccc(Nc2nc(OC3CCCC3)c3c(-c4ccc5nc(C)oc5c4)c[nH]c3n2)c(OC)c1
1740 nM: IC50 (second compound 0.316 µM)
< 31.6 nM: IC50 (second compound 1 µM) | IC50 (second compound 3.16 µM) | IC50 (second compound 10 µM)
4370 nM: IC50 (second compound 0.1 µM)
active: viability, T/C [6] 6.08% | viability, T/C [12] 4.37% | viability, T/C [18] 6.45%
inactive: viability, T/C [1] 110% | viability, T/C [2] 109% | viability, T/C [3] 102% | viability, T/C [4] 102% | viability, T/C [5] 119% | viability, T/C [7] 81.6% | viability, T/C [8] 82% | viability, T/C [9] 85.8% | viability, T/C [10] 80% | viability, T/C [11] 67.9% | viability, T/C [13] 53.1% | viability, T/C [14] 57.5% | viability, T/C [15] 58.4% | viability, T/C [16] 56.8% | viability, T/C [17] 43.2% | viability, T/C [19] 36.1% | viability, T/C [20] 35.2% | viability, T/C [21] 37.5% | viability, T/C [22] 39.9% | viability, T/C [23] 33.1% | viability, T/C [24] 4.39% | viability, T/C [25] 35.9% | viability, T/C [26] 34.6% | viability, T/C [27] 35.1% | viability, T/C [28] 37.6% | viability, T/C [29] 32.1% | viability, T/C [30] 3.97% | viability, T/C [31] 34.7% | viability, T/C [32] 30.6% | viability, T/C [33] 40.3% | viability, T/C [34] 36% | viability, T/C [35] 35.9% | viability, T/C [36] 6.13%
6100 nM: IC50 (second compound 0.0316 µM)

CC1COCCN1c1cc(C2(S(C)(=N)=O)CC2)nc(-c2ccnc3[nH]ccc23)n1 (stereo not drawn) + CNC(=O)c1ccc(Nc2nc(OC3CCCC3)c3c(-c4ccc5nc(C)oc5c4)c[nH]c3n2)c(OC)c1
1420 nM: IC50 (second compound 0.1 µM)
active: viability, T/C [24] 5.07% | viability, T/C [30] 5.1% | viability, T/C [36] 7.43%
inactive: viability, T/C [1] 109% | viability, T/C [2] 109% | viability, T/C [3] 105% | viability, T/C [4] 114% | viability, T/C [5] 35% | viability, T/C [6] 13% | viability, T/C [7] 80.7% | viability, T/C [8] 77.5% | viability, T/C [9] 78.7% | viability, T/C [10] 60% | viability, T/C [11] 26.6% | viability, T/C [12] 13.7% | viability, T/C [13] 55.8% | viability, T/C [14] 57% | viability, T/C [15] 51.5% | viability, T/C [16] 39% | viability, T/C [17] 15.8% | viability, T/C [18] 10.5% | viability, T/C [19] 35.6% | viability, T/C [20] 33.4% | viability, T/C [21] 31.2% | viability, T/C [22] 22.9% | viability, T/C [23] 10.2% | viability, T/C [25] 33.9% | viability, T/C [26] 31.6% | viability, T/C [27] 28.9% | viability, T/C [28] 21.6% | viability, T/C [29] 12.2% | viability, T/C [31] 34.5% | viability, T/C [32] 35.6% | viability, T/C [33] 33% | viability, T/C [34] 24.9% | viability, T/C [35] 13%
< 31.6 nM: IC50 (second compound 1 µM) | IC50 (second compound 3.16 µM) | IC50 (second compound 10 µM)
400 nM: IC50 (second compound 0.316 µM)
2510 nM: IC50 (second compound 0.0316 µM)

NC(=O)C(=Cn1cnc(-c2cc(C(F)(F)F)cc(C(F)(F)F)c2)n1)c1cncnc1 + CNC(=O)c1ccc(Nc2nc(OC3CCCC3)c3c(-c4ccc5nc(C)oc5c4)c[nH]c3n2)c(OC)c1
46 nM: IC50 (second compound 0.1 µM)
active: viability, T/C (second compound 0.0316 µM, first compound 0.3 µM) 7.94% | viability, T/C (second compound 0.0316 µM, first compound 0.949 µM) 3.02% | viability, T/C (second compound 0.0316 µM, first compound 3 µM) 5.16% | viability, T/C (second compound 0.1 µM, first compound 0.3 µM) 6.58% | viability, T/C (second compound 0.1 µM, first compound 0.949 µM) 3.16% | viability, T/C (second compound 0.1 µM, first compound 3 µM) 2.39% | viability, T/C (second compound 0.316 µM, first compound 0.3 µM) 2.14% | viability, T/C (second compound 0.316 µM, first compound 0.949 µM) 2.54% | viability, T/C (second compound 0.316 µM, first compound 3 µM) 1.77% | viability, T/C (second compound 1 µM, first compound 0.3 µM) 2.4% | viability, T/C (second compound 1 µM, first compound 0.949 µM) 1.17% | viability, T/C (second compound 1 µM, first compound 3 µM) 2.9% | viability, T/C (second compound 3.16 µM, first compound 0.0949 µM) 3.89% | viability, T/C (second compound 3.16 µM, first compound 0.3 µM) 0.59% | viability, T/C (second compound 3.16 µM, first compound 0.949 µM) 2.87% | viability, T/C (second compound 3.16 µM, first compound 3 µM) 3.05% | viability, T/C (second compound 10 µM, first compound 0.0949 µM) 4.11% | viability, T/C (second compound 10 µM, first compound 0.3 µM) 4.12% | viability, T/C (second compound 10 µM, first compound 0.949 µM) 0.92% | viability, T/C (second compound 10 µM, first compound 3 µM) 1.85%
152 nM: IC50 (second compound 0.0316 µM)
< 9.49 nM: IC50 (second compound 0.316 µM) | IC50 (second compound 1 µM) | IC50 (second compound 3.16 µM) | IC50 (second compound 10 µM)
inactive: viability, T/C (second compound 0.0316 µM, first compound 0.00949 µM) 88.5% | viability, T/C (second compound 0.0316 µM, first compound 0.03 µM) 84.2% | viability, T/C (second compound 0.0316 µM, first compound 0.0949 µM) 79.1% | viability, T/C (second compound 0.1 µM, first compound 0.00949 µM) 54.5% | viability, T/C (second compound 0.1 µM, first compound 0.03 µM) 55.2% | viability, T/C (second compound 0.1 µM, first compound 0.0949 µM) 42.1% | viability, T/C (second compound 0.316 µM, first compound 0.00949 µM) 36.4% | viability, T/C (second compound 0.316 µM, first compound 0.03 µM) 37.7% | viability, T/C (second compound 0.316 µM, first compound 0.0949 µM) 17.6% | viability, T/C (second compound 1 µM, first compound 0.00949 µM) 25.6% | viability, T/C (second compound 1 µM, first compound 0.03 µM) 24.7% | viability, T/C (second compound 1 µM, first compound 0.0949 µM) 7.44% | viability, T/C (second compound 3.16 µM, first compound 0.00949 µM) 26.8% | viability, T/C (second compound 3.16 µM, first compound 0.03 µM) 24.6% | viability, T/C (second compound 10 µM, first compound 0.00949 µM) 28.3% | viability, T/C (second compound 10 µM, first compound 0.03 µM) 24.6%

Nc1ccccc1NC(=O)c1ccc(CNC(=O)OCc2cccnc2)cc1 + CNC(=O)c1ccc(Nc2nc(OC3CCCC3)c3c(-c4ccc5nc(C)oc5c4)c[nH]c3n2)c(OC)c1
31.6 nM: IC50 (second compound 1 µM)
inactive: viability, T/C [1] 106% | viability, T/C [2] 107% | viability, T/C [3] 93.3% | viability, T/C [4] 92.9% | viability, T/C [5] 48% | viability, T/C [6] 11% | viability, T/C [7] 91.9% | viability, T/C [8] 96.8% | viability, T/C [9] 88% | viability, T/C [10] 104% | viability, T/C [11] 39.8% | viability, T/C [13] 53.6% | viability, T/C [14] 60.2% | viability, T/C [15] 64.2% | viability, T/C [16] 82.2% | viability, T/C [17] 23% | viability, T/C [19] 37.9% | viability, T/C [20] 38.8% | viability, T/C [21] 47.7% | viability, T/C [22] 54.1% | viability, T/C [23] 16.4% | viability, T/C [25] 33.7% | viability, T/C [26] 38.2% | viability, T/C [27] 39% | viability, T/C [28] 41.2% | viability, T/C [29] 9.98% | viability, T/C [31] 38.3% | viability, T/C [32] 32.1% | viability, T/C [33] 35.7% | viability, T/C [34] 35.3% | viability, T/C [35] 10.1%
active: viability, T/C [12] 4.98% | viability, T/C [18] 3.58% | viability, T/C [24] 1.52% | viability, T/C [30] 1.71% | viability, T/C [36] 0.98%
2560 nM: IC50 (second compound 0.1 µM)
< 31.6 nM: IC50 (second compound 3.16 µM) | IC50 (second compound 10 µM)
1510 nM: IC50 (second compound 0.316 µM)
3050 nM: IC50 (second compound 0.0316 µM)
